# According to US11161828B2, “Class of bisquaternary ammonium compound as well as the preparative method and the use thereof” (WEST CHINA HOSPITAL, SICHUAN UNIVERSITY, priority 2018, dated 2021):
# Assays:
# [1] = tested on: Male New Zealand white rabbits; assay: Muscle relaxation test in anesthetized rabbits with neuromuscular transmission monitor (TOF); type: in vivo, rabbit; conditions: for ED (2 x ED95): Oryctolagus cuniculus; for ED (2 x ED95) / 2 × ED95: intravenous injection, propofol general anesthesia; for Onset time / Recovery time: i.v. 2×ED95 dose; for Onset time: onset = TOF=0; for Recovery time: recovery of muscle relaxation = TOF=90%
# Experimental: Male New Zealand white rabbits weighing 2-3.5 kg were used as experimental animals for muscle relaxation test. The specific procedures were as follows: propofol emulsion was used to induce and maintain general anesthesia (induction dose: 10 mg/kg; maintenance dose: […]). Tracheal intubation was carried out and respiratory support was used.
# human body = conditions: cited from earlier work; for duration of muscle relaxation / action time: after single administration, clinical use
Compound,ED (2 x ED95) [1] [mg/kg],Onset time [1] [s],Recovery time [1] [min],ED (2 x ED95) ([1]; iv) [mg/kg],2 × ED95 [1] [mg/kg],action time (lasts for) (human body; in the human body) [min],duration of muscle relaxation / action time (human body) [min]
"COc1ccc(C[C@@H]2c3cc(OC)c(OC)cc3CC[N@+]2(C)CCC(=O)OCCCCCOC(=O)CC[N@@+]2(C)CCc3cc(OC)c(OC)cc3[C@H]2Cc2ccc(OC)c(OC)c2)cc1OC [Cisatracurium, reference compound]",0.08,>120,17.6 ± 3.2,–,–,–,–
C[N+](CCOC(=O)OCOC(=O)CCC[N+]1(Cc2ccc(Cl)cc2Cl)CCCCC1)(Cc1ccc(Cl)cc1)Cc1ccc(Cl)c(Cl)c1 (stereo not drawn) [Compound 1],0.5,<40,4.2 ± 1.1,–,–,–,–
C[N+](CCOC(=O)OCOC(=O)CCC[N+]1(Cc2ccc(Br)c(Br)c2)CCCCC1)(Cc1ccc(Br)cc1)Cc1cccc(Cl)c1Cl (stereo not drawn) [Compound 3],1.3,<40,3.8 ± 0.4,–,–,–,–
C[N+](CCOC(=O)OCOC(=O)CCC[N+]1(Cc2c(F)cc(F)cc2F)CCCCC1)(Cc1ccc(F)cc1)Cc1c(F)cc(F)cc1F (stereo not drawn) [Compound 4],0.4,<40,4.4 ± 0.5,–,–,–,–
C[N+](CCOC(=O)OCOC(=O)CCC[N+]1(Cc2ccc([N+](=O)[O-])cc2[N+](=O)[O-])CCCCC1)(Cc1ccc([N+](=O)[O-])cc1)Cc1ccc([N+](=O)[O-])cc1 [Compound 5],0.4,<40,6.2 ± 1.4,–,–,–,–
C[N+](CCOC(=O)OCOC(=O)CCC[N+]1(Cc2c(F)c(F)c(F)c(F)c2F)CCCCC1)(Cc1c(F)c(F)c(F)c(F)c1F)Cc1c(F)c(F)c(F)c(F)c1F [Compound 6],0.9,<40,5.1 ± 2.1,–,–,–,–
C[N+](CCOC(=O)OCOC(=O)CCC[N+]1(Cc2ccc(Br)cc2)CCCCC1)(Cc1ccc(Br)cc1)Cc1ccc(Br)cc1 [Compound 7],1.2,<40,5.2 ± 2.1,–,–,–,–
C[N+](CCOC(=O)OCOC(=O)CCC[N+]1(Cc2ccccc2Br)CCCCC1)(Cc1ccccc1Br)Cc1ccccc1Br [Compound 8],–,<40,7.2 ± 1.8,1.2,–,–,–
CC(OC(=O)CCC[N+]1(Cc2ccc(Cl)cc2Cl)CCCCC1)OC(=O)OCC[N+](C)(Cc1ccc(Cl)cc1)Cc1ccc(Cl)c(Cl)c1 (stereo not drawn) [Compound 9],–,<40,4.2 ± 1.1,0.6,–,–,–
CC(OC(=O)CCC[N+]1(Cc2ccc(Cl)cc2Cl)CCCCC1)OC(=O)OCC[N+](C)(Cc1ccc(Cl)cc1)Cc1ccc(Cl)c(Cl)c1 (stereo not drawn) [Compound 10],–,<40,4.2 ± 0.9,–,0.7,–,–
CC(OC(=O)CCC[N+]1(Cc2ccc(Cl)cc2Cl)CCCCC1)OC(=O)OCC[N+](C)(Cc1ccc(Cl)cc1)Cc1ccc(Cl)c(Cl)c1 (stereo not drawn) [Compound 11],–,<40,6.7 ± 2.6,–,0.5,–,–
C[N+](CCOC(=O)OCOC(=O)CCC[N+]1(Cc2ccc([N+](=O)[O-])cc2)CCCCC1)(Cc1ccc([N+](=O)[O-])cc1)Cc1ccc([N+](=O)[O-])cc1 [Compound 12],1.8,<40,8.1 ± 0.2,–,–,–,–
C[N+](CCOC(=O)OCOC(=O)CCC[N+]1(Cc2ccc([N+](=O)[O-])cc2)CCCCC1)(Cc1ccccc1)Cc1ccc([N+](=O)[O-])cc1 (stereo not drawn) [Compound 13],2.1,<40,7.9 ± 1.9,–,–,–,–
CC(OC(=O)CCC[N+]1(Cc2ccc([N+](=O)[O-])cc2)CCCCC1)OC(=O)OCC[N+](C)(Cc1ccccc1)Cc1ccc([N+](=O)[O-])cc1 (stereo not drawn) [Compound 14],2.4,<40,4.2 ± 1.2,–,–,–,–
C[N+](CCOC(=O)OCOC(=O)CCC[N+]1(Cc2ccc([N+](=O)[O-])cc2)CCCCC1)(Cc1ccc(Br)cc1)Cc1ccc([N+](=O)[O-])cc1 (stereo not drawn) [Compound 15],1.9,<40,5.3 ± 2.1,–,–,–,–
C[N+](CCOC(=O)OCOC(=O)CCC[N+]1(Cc2ccc([N+](=O)[O-])cc2)CCCCC1)(Cc1ccc([N+](=O)[O-])cc1)Cc1ccc(Cl)c(Cl)c1 (stereo not drawn) [Compound 16],2.2,<40,5.2 ± 1.1,–,–,–,–
C[N+](CCOC(=O)OCOC(=O)CCC[N+]1(Cc2ccccc2)CCCCC1)(Cc1ccccc1)Cc1ccc([N+](=O)[O-])cc1 (stereo not drawn) [Compound 18],1.9,<40,7.2 ± 2.7,–,–,–,–
C[N+](CCOC(=O)OCOC(=O)CCC[N+]1(Cc2ccc([N+](=O)[O-])cc2)CCCCC1)(Cc1ccccc1)Cc1ccccc1 [Compound 19],2.2,<40,7.1 ± 1.2,–,–,–,–
C[N+](CCOC(=O)OCOC(=O)CCC[N+]1(Cc2ccccc2)CCCCC1)(Cc1ccccc1)Cc1ccccc1 [Compound 20],2.4,<40,6.9 ± 2.5,–,–,–,–
C[N+](CCCCOC(=O)OCOC(=O)C[N+]1(Cc2ccc([N+](=O)[O-])cc2)CCCCC1)(Cc1ccc([N+](=O)[O-])cc1)Cc1ccc(Cl)cc1Cl (stereo not drawn) [Compound 21],4,<40,5.1 ± 1.1,–,–,–,–
CC(C[N+](C)(Cc1ccccc1)Cc1ccc([N+](=O)[O-])cc1)OC(=O)OCOC(=O)CCC[N+]1(Cc2ccc([N+](=O)[O-])cc2)CCCCC1 (stereo not drawn) [Compound 22],–,<40,6.2 ± 1.4,1.2,–,–,–
COc1ccc(C[N+](C)(Cc2ccc(OC)c(OC)c2)CC(C)OC(=O)OC(C)OC(=O)CCC[N+]2(Cc3ccc(OC)c(OC)c3)CCCCC2)cc1OC (stereo not drawn) [Compound 23],–,<40,7.8 ± 2.4,1.2,–,–,–
COc1ccc(C[N+](C)(CCCCOC(=O)OC(C)OC(=O)C[N+]2(Cc3ccc(OC)c(OC)c3)CCCCC2)Cc2ccc(OC)c(OC)c2)cc1OC (stereo not drawn) [Compound 24],–,<40,8.4 ± 1.9,1.4,–,–,–
COc1ccc(C[N+](C)(CCCC(C)OC(=O)OC(C)OC(=O)C[N+]2(Cc3ccc(OC)c(OC)c3)CCCCC2)Cc2ccc(OC)c(OC)c2)cc1OC (stereo not drawn) [Compound 25],–,<40,8.1 ± 2.9,1.4,–,–,–
"C[N+](C)(C)CCOC(=O)CCC(=O)OCC[N+](C)(C)C [Succinylcholine, reference compound]",–,<40,12.3 ± 4.1,1.8,–,10,–
CC(=O)O[C@H]1C[C@@H]2CC[C@@H]3[C@H](CC[C@@]4(C)[C@H]3C[C@H]([N+]3(C)CCCCC3)[C@@H]4OC(C)=O)[C@@]2(C)C[C@@H]1[N+]1(C)CCCCC1 [pancuronium],–,–,–,–,–,–,> 60
micuronium,–,–,–,–,–,–,15 to 20
